Results from article PMC10787677, “Characterization of a novel aspartic protease from Trichoderma asperellum for the preparation of duck blood peptides” (Applied Microbiology and Biotechnology, 2024).
Non-standard residues stand in square brackets, D forms with d. Residues, ends and D or L forms follow the SMILES beside them. *: point of attachment. Sta = CC(C)C[C@H](N)[C@@H](O)CC(=O)O; Isovaleryl = CC(C)CC(=O)*

Target: T1, TaproA1 (Trichoderma asperellum, UniProt A0A6V8QUH5)
T1 construct: mature enzyme about 36 kDa; precursor 521 residues; purified on Q-Sepharose Fast Flow
Experiment: residual casein hydrolysis after […] min preincubation, Folin phenol read-out
Format: biochemical
Settings: read-out: Relative activity ^b (%)

T1 sequence (A0A6V8QUH5 189-517 limits assumed): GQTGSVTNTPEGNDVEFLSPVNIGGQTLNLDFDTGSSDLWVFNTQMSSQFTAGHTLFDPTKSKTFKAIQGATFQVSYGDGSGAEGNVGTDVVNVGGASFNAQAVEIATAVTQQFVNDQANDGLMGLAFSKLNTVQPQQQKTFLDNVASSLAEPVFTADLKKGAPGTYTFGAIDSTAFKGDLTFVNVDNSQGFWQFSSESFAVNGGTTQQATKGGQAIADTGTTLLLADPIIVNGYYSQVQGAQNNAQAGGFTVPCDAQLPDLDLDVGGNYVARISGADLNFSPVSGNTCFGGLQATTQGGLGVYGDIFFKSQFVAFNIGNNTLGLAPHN

SMILES: CC(C)CC(=O)N[C@H](C(=O)N[C@H](C(=O)N[C@@H](CC(C)C)[C@@H](O)CC(=O)N[C@@H](C)C(=O)N[C@@H](CC(C)C)[C@@H](O)CC(=O)O)C(C)C)C(C)C [Pepstatin A] (Isovaleryl-VV[Sta]A[Sta]-OH)
- activity at 10 µM: 0.7 ± 0.1%
